US10865191B2, “Heterocyclic compounds useful as modulators of TNF alpha” (BRISTOL-MYERS SQUIBB COMPANY, priority 2015, dated 2020)

target: TNFα (Homo sapiens, UniProt P01375); experiment: TNF induced HEK-Blue assay (NF-kB-driven secreted alkaline phosphatase reporter); assay type: cell-based; conditions: TNFα 0.5 ng/mL, HEK-Blue-CD40L cells, 18 h; read-out: TNF induced HEK-Blue assay IC50 value
Procedure, shortened: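 HEK-Blue-CD40L cells (NF-kB-driven SEAP reporter), 20,000/well, added after 30 min pre-incubation of compound (0.004–25 μM final) with TNFα 0.5 ng/mL final at 37 °C; 18 h incubation. SEAP read with QUANTI-Blue at 620 nm; IC50 from 4-parameter logistic fit, normalized to unstimulated and stimulated DMSO controls.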

Sequence of TNFα (P01375 77-233 limits assumed): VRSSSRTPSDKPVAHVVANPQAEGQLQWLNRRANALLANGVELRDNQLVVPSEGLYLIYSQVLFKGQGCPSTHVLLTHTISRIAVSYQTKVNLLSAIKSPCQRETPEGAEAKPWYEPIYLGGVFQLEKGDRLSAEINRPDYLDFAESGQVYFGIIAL

First: C[C@@H](Nc1c(Cl)cnc2ccc(-c3cnc(C4CCN(CC(=O)O)CC4)nc3)cc12)c1ccccc1F [Example 593, (R)-2-(4-(5-(3-chloro-4-((1-(2-fluorophenyl)ethyl)amino)quinolin-6-yl)pyrimidin-2-yl)piperidin-1-yl)acetic acid]
Second: C[C@@H](Nc1c(Cl)cnc2cc(F)c(-c3cnc(C4CCN(CC(=O)O)CC4)nc3)cc12)c1ccccc1F [Example 594, (R)-2-(4-(5-(3-chloro-7-fluoro-4-((1-(2-fluorophenyl)ethyl)amino)quinolin-6-yl)pyrimidin-2-yl)piperidin-1-yl)acetic acid]
The IC50 of the first is higher: 1 to 10 µM for the first, less than 1 µM for the second. The second is the more potent here.

For `CC(C)(O)c1ncc(-c2cc3c(NC4(c5ccccc5F)CCC4)c(Cl)cnc3cc2F)cn1` [Example 609, 2-(5-(3-chloro-7-fluoro-4-((1-(2-fluorophenyl)cyclobutyl)amino)quinolin-6-yl)pyrimidin-2-yl)propan-2-ol], the IC50 was 1 to 10 µM.
